Measurements published in publication PMC12494831, “Discovery of new pyridine 3-carboxylic acid-based pharmacophores as dual anti-inflammatory and anti-hyperglycemic agents” (Scientific Reports, 2025).

What was measured:
[1] = ABTS cation radical scavenging (734 nm); conditions: for IC50: read-out: ABTS IC50±SD
Method: (§1) The experimental method principle relies on the degradation of the purple color of the DPPH radical and the blue color reduction of the ABTS cation radical. This is due to consuming the electron or hydrogen radical from the antioxidant (A-H). Both assays were measured at 517 nm and 734 nm, respectively. The distinction of color changes illustrates the potential scavenging activity of the inhibitor molecules in terms of hydrogen-donating proficiency. From this, we can conclude the anti-oxidant efficacy.
In brief, 7.0 mM ABTS in H2O and 2.5 mM potassium persulfate (1:1) were shaken well to generate ABTS cation radicals and kept in the dark at RT for 15–20 h before it is used for the experiment. After, the radical was mixed with the synthesized molecules at different concentrations (20 µM to 100 µM). The resultant solution was measured for absorbance at 734 nm. Ascorbic acid is the positive control for this experiment.1 [drawing 1]

α-amylase (EC.3.2.1.1) = biological target: T1, α-amylase (EC.3.2.1.1) (Homo sapiens, UniProt P04746); assay: In vitro α-amylase inhibition (starch/DNS, 540 nm); format: biochemical; conditions: for IC50: test concentrations 2-10 µg, read-out: α-Amylase IC50±SD (converted)
T1 sequence (P04746 16-511): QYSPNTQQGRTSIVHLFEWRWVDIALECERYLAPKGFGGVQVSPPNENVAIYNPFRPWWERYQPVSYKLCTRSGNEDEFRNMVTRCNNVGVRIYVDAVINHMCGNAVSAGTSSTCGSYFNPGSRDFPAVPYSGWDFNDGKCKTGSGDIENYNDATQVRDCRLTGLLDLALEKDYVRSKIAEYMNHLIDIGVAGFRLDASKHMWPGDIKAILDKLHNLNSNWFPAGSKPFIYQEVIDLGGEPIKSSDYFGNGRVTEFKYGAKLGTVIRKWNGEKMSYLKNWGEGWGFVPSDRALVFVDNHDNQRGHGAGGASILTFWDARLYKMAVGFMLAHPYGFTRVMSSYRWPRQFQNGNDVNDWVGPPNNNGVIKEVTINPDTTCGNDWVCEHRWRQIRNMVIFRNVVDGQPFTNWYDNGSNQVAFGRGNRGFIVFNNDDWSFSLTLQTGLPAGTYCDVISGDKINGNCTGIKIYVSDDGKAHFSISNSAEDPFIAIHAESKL
Method: α-Amylase enzyme and other chemical reagents are used for enzyme inhibitory activity. The characterized compounds are diluted in an analytical grad solvent (DMSO) system at 1 mg/mL solution concentration. The activity reaction of the synthesized analogues on the enzyme was treated at final concentrations of 2 to 10 µg. In the interaction between enzyme and compounds, 10 min incubation was maintained before the inhibitory activity started. The enzyme-receptor inhibition efficiency was calculated and compared with the positive control.
Sodium phosphate buffer 0.2 mM (pH 6.9 with 6 × 10^− 4 M NaCl) in 500 µL enzyme solution (0.5 mg/mL) was taken and incubated with test samples (2–10 µg/mL) at room temperature for 10 min. A starch (1%) solution of 500 µL with phosphate buffer was added to all test inhibitor samples; further, the tubes were incubated for 10 min at 28 °C. The reaction test tubes were incubated for another 5 min in the water bath (100 °C) after the addition of the color reagent dinitro salicylic acid and cooled at room temperature until reached. Finally, 10 mL of distilled water was mixed with each test tube, and the colored mixture was measured at a fixed wavelength of 540 nm. The absorbance without sample solution (blank) and control (buffer and standard drug sample) was measured at 540 nm. The α-amylase inhibition efficiency was validated using the following equation:2 [drawing 2]

[2] = DPPH radical scavenging (517 nm); conditions: for IC50: read-out: DPPH IC50±SD
Method: as §1
Methanolic DPPH solution (0.15 mM) was prepared, and 1.0 mL of DPPH solution was mixed with 3.0 mL of synthesized molecules at different concentrations (20 µM to 100 µM). The mixture was constantly swirled and stored RT for 30 min, followed by absorbance measurement at 517 nm.

human RBC = assay: Anti-inflammatory activity: hypotonic solution-induced human RBC hemolysis (560 nm); format: cell-based; conditions: for IC50: induced human RBC hemolysis, read-out: Inflammatory IC50±SD
Method: All synthesized compounds are validated in human RBC (blood sample); the blood sample was collected from a healthy volunteer in an EDTA tube. The EDTA tube further proceeded with centrifugation at 3000 rpm for 30 min. A supernatant (which contains plasma and leucocytes) solution was isolated, and the obtained RBC (red blood cells) was further treated with Alsever’s reagent. Alsever’s reagent was prepared as follows: sodium citrate (0.8 g, 2.6 mmol), dextrose (2 g, 11.0 mmol), citric acid (0.050 g, […]), and sodium chloride (0.42 g, 7.0 mmol) were solubilized in 100 mL of distilled water. The above mixture was centrifuged for 30 min at 3000 rpm. Then, colloidal blood cells were separated, carefully transferred, and washed with 0.85% of the isosaline solution; this process continued until a clear solution appeared. Employing coagulated RBC and generated human erythrocyte hemolysis, the anti-inflammatory activity and potential of the synthesized entities were evaluated. The tested compounds are prepared at different concentrations for the inhibition activity of inflammation, along with 100 µL of a purified RBC sample utilized. All characterized samples were followed by adding 5.0 mL of trisodium phosphate (10 mM) and 5.0 mL of sodium chloride (5.0 mM) buffer solutions. After the addition of the above mixtures, the test samples are incubated for 15 min at room temperature with RBC and hypotonic mixtures. After incubation, the mixture was centrifuged at 3000 rpm for 15 min. The final supernatant liquid solution was measured at 560 nm using a UV-visible spectrophotometer.3 [drawing 3]

MTT cell viability assay = format: cell-based; conditions: mouse, RAW 264.7 macrophage cells, control 100
Method: (§2) The toxicity of the molecule was investigated by the MTT cell viability assay employing RAW macrophage cells. For this study, two lead compounds, 2b and 2e, were screened based on the in vitro results. […] (The OD values in Tables S6 and S7)
(§3) The MTT ((3-(4,5-Dimethylthiazol-2-yl)-2,5-Diphenyltetrazolium Bromide)) assay was employed to determine viability for the synthesized potent compounds 2b and 2e; the cell viability results portray the compounds’ cytotoxicity. The assay was conducted on RAW macrophage cells (RAW 264.7) with various dilutions of 2b and 2e (10, 20, 30, 40, and 50 µM). The results were confirmed with a control.

[3] = system: RAW macrophage cells (RAW 264.7); assay: MTT cell viability assay; format: cell-based; conditions: for MTT assay Average OD: control average OD 0.924
Method: as §2, §3

## O=C(Oc1ccc2c(c1)OCO2)c1cccnc1 [Compound 2h, Benzo[1,3]dioxol-5-yl nicotinate]
[1]; 20 µM
  ABTS Inhibition %: 69%
[1]; 40 µM
  ABTS Inhibition %: 71%
[1]; 60 µM
  ABTS Inhibition %: 72%
[1]; 80 µM
  ABTS Inhibition %: 72.9%
[1]; 100 µM
  ABTS Inhibition %: 76.7%
[1]
  IC50: 16.4 ± 0.25 µM
α-amylase (EC.3.2.1.1); 2 µg
  α-Amylase Inhibition %: 74.08%
α-amylase (EC.3.2.1.1); 4 µg
  α-Amylase Inhibition %: 73.2%
α-amylase (EC.3.2.1.1); 6 µg
  α-Amylase Inhibition %: 72.47%
α-amylase (EC.3.2.1.1); 8 µg
  α-Amylase Inhibition %: 70.57%
α-amylase (EC.3.2.1.1); 10 µg
  α-Amylase Inhibition %: 70.13%
α-amylase (EC.3.2.1.1)
  IC50: 6.23 µM
[2]; 20 µM
  DPPH Inhibition %: 84.5%
[2]; 40 µM
  DPPH Inhibition %: 85.8%
[2]; 60 µM
  DPPH Inhibition %: 86.8%
[2]; 80 µM
  DPPH Inhibition %: 87.2%
[2]; 100 µM
  DPPH Inhibition %: 87.68%
[2]
  IC50: 12.9 ± 0.19 µM
Human RBC
  inhibition at 20 µM: 52%
  inhibition at 40 µM: 63%
  inhibition at 60 µM: 64.7%
  inhibition at 80 µM: 65%
  inhibition at 100 µM: 70%
  IC50: 21.7 ± 0.24 µM

## COC(=O)/C=C/c1ccc(OC(=O)c2cccnc2)c(OC)c1 [Compound 2b, 2-Methoxy-4-(3-methoxy-3-oxoprop-1-en-1-yl) phenyl nicotinate]
[1]; 20 µM
  ABTS Inhibition %: 59.6%
[1]; 40 µM
  ABTS Inhibition %: 60.8%
[1]; 60 µM
  ABTS Inhibition %: 60.9%
[1]; 80 µM
  ABTS Inhibition %: 61%
[1]; 100 µM
  ABTS Inhibition %: 61.4%
[1]
  IC50: 19.9 ± 0.25 µM
α-amylase (EC.3.2.1.1); 2 µg
  α-Amylase Inhibition %: 80.52%
α-amylase (EC.3.2.1.1); 4 µg
  α-Amylase Inhibition %: 80.38%
α-amylase (EC.3.2.1.1); 6 µg
  α-Amylase Inhibition %: 77.01%
α-amylase (EC.3.2.1.1); 8 µg
  α-Amylase Inhibition %: 69.1%
α-amylase (EC.3.2.1.1); 10 µg
  α-Amylase Inhibition %: 54.9%
α-amylase (EC.3.2.1.1)
  IC50: 4.37 µM
MTT cell viability assay; 10 µM
  viability at 10 µM: 85.4%
MTT cell viability assay; 20 µM
  viability at 20 µM: 77.4%
MTT cell viability assay; 30 µM
  viability at 30 µM: 68.5%
MTT cell viability assay; 40 µM
  viability at 40 µM: 58.8%
MTT cell viability assay; 50 µM
  viability at 50 µM: 45.3%
[3]; 10 µM
  MTT assay Triplicate values OD1: 0.790
  MTT assay Triplicate values OD2: 0.792
  MTT assay Triplicate values OD3: 0.785
  MTT assay Average OD: 0.789
[3]; 20 µM
  MTT assay Triplicate values OD1: 0.719
  MTT assay Triplicate values OD2: 0.712
  MTT assay Triplicate values OD3: 0.711
  MTT assay Average OD: 0.714
[3]; 30 µM
  MTT assay Triplicate values OD1: 0.634
  MTT assay Triplicate values OD2: 0.629
  MTT assay Triplicate values OD3: 0.636
  MTT assay Average OD: 0.633
[3]; 40 µM
  MTT assay Triplicate values OD1: 0.542
  MTT assay Triplicate values OD2: 0.541
  MTT assay Triplicate values OD3: 0.546
  MTT assay Average OD: 0.543
[3]; 50 µM
  MTT assay Triplicate values OD1: 0.418
  MTT assay Triplicate values OD2: 0.416
  MTT assay Triplicate values OD3: 0.423
  MTT assay Average OD: 0.419
[3]; RAW macrophage cells
  Toxicity, outcome of the MTT cell viability assay (in words): viable for the cell line
[2]; 20 µM
  DPPH Inhibition %: 66.2%
[2]; 40 µM
  DPPH Inhibition %: 86.32%
[2]; 60 µM
  DPPH Inhibition %: 87.6%
[2]; 80 µM
  DPPH Inhibition %: 88%
[2]; 100 µM
  DPPH Inhibition %: 88.4%
[2]
  IC50: 15.63 ± 0.13 µM
Human RBC
  inhibition at 20 µM: 60%
  inhibition at 40 µM: 69.9%
  inhibition at 60 µM: 71%
  inhibition at 80 µM: 76%
  inhibition at 100 µM: 85.8%
  IC50: 18.41 ± 0.13 µM
